Laboratory results: publication PMC8230565, “Bisavenathramide Analogues as Nrf2 Inductors and Neuroprotectors in In Vitro Models of Oxidative Stress and Hyperphosphorylation” (Antioxidants, 2021)
Entries after “also recorded” stand apart in the source; their conditions may differ.

Columns and labels:
[1] = DPPH radical scavenging assay; conditions: for DPPH Scavenging at 0.1 mM, %: 0.1 mM compound; for DPPH Scavenging at 1 mM, %: 1 mM compound; for IC50: n in brackets
Method: The direct antioxidant effects of compounds 3 were investigated by studying their radical-scavenging effect on the 2,2-diphenyl-1-picrylhydrazyl free radical (DPPH^•). Thus, a 100 μL volume of a methanol solution of each compound was added to 200 μL of 100 μM methanolic DPPH^•, and the solution was kept in the dark at 37 °C for 30 min in a 96-well microliter plate. After this incubation, the absorption at 490 nm of each solution was measured with a microplate reader in order to quantitate its decrease. A blank reading was also taken to calculate the amount of remaining DPPH^•. The radical-scavenging activity exerted by compounds 3 was determined by comparison with a 10 μL of MeOH-treated blank group. Ascorbic acid, a well-known antioxidant acting as a radical scavenger, was used as reference. All samples were analyzed in triplicate. Percent inhibition of the DPPH^• radical was calculated using the equation shown below, where AbsCtrl is the absorbance of the blank group and Abss is the absorbance of the samples containing compounds 3. For each compound showing a percentage of inhibition above 60%, the IC50 value was determined using a dose–response curve obtained from measurements corresponding to at least six concentrations. %Scavenger=AbsCtrl−AbsS/AbsCtrl×100
The radical scavenging activity of all compounds was first studied by the DPPH assay, which measures the ability of antioxidant compounds to donate a hydrogen atom to the violet 2,2-diphenyl-1-picrylhydrazyl radical and transform it into a nonradical species. Thus, it is generally considered to belong to the hydrogen atom transfer (HAT) category of methods for measurement of antioxidant activity.

Nrf2 = Nrf2 induction, luciferase assay in AREc32 cells; type: cell-based; conditions: Arec32, 24 h, read-out: CD (concentration that doubles luciferase activity)
Method: AREc32 cells (kindly shared by Dr. Professor Ronald C. Wolf, University of Dundee, Dundee, UK) were grown in Dulbecco’s modified Eagle medium (DMEM) with glutamax, supplemented with 10% fetal bovine serum (FBS), 1% of antibiotics penicillin–streptomycin, and geneticin (0.8 mg/mL, G418) (GIBCO, Madrid, Spain). Cells were harvested in a […] flask with 11 mL of the specified medium, incubated at 37 °C and 5% CO2, and they were transferred to a new flask every 4–6 days, when the confluence was around 80%. Cells were seeded in 96-well white plates (20,000 cells/well) using 100 μL/well. After 24 h, cells were treated with compounds at desired concentrations (1, 5, 10, 15 μM) for 24 h, including tert-butyl hydroquinone (TBHQ, 10 μM) as a positive control. Another 24 h later, luciferase activity was measured through a bioluminescence assay using a “Luciferase assay system” (Promega E1500, Madison, WI, USA), following the protocol given by the provider, and quantifying luminescence in an Orion II microplate luminometer (Berthold, Germany). Measurements were performed by duplicate, and the values were normalized to basal luminescence considered as 1. Nrf2 induction potency was expressed as CD values, i.e., the concentrations required to double the luciferase activity, and are calculated from dose–response curves generated by plotting fold induction of control conditions vs. compound concentration, and fitted by non-linear regression and data interpolated to value 2.
The ability of our compounds to induce Nrf2 was evaluated in the AREc32 cell line, an MCF7 stable clone that is transfected with eight copies of the luciferase reporter gene immediately after the ARE sequence. Therefore, Nrf2 activation and the subsequent transcription of the genes dependent on the ARE element also leads to expression of luciferase, which can be quantitated using a luminescence assay. AREc32 cells were incubated for 24 h with 0.3, 3, 10, 30, and 60 μM concentrations of compounds 3, and a luminescence measurement allowed CD values to be obtained. This parameter characterizes the Nrf2-inducing ability of each compound and represents the concentration required to double the luciferase activity compared to its basal expression.

SH-SY5Y cells [2] = experiment: Neuroprotection against rotenone/oligomycin A in SH-SY5Y cells (MTT); type: cell-based; conditions: Homo sapiens, 24 h, 1 µM compound, rotenone 30 µM + oligomycin A 10 µM, read-out: % Neuroprotection ± SEM at 1 µM (rotenone/oligomycin A)
Method: To evaluate the compounds for their neuroprotective effect in an oxidative stress model, we selected the rotenone (30 μM) and oligomycin A (10 μM) (R/O) cocktail, which disturbs the flow of electrons in the mitochondrial respiratory chain. Similarly, SH-SY5Y cells were preincubated with compounds 3 at 1 μM for 24 h. Then, they were co-incubated in the presence of R/O for a further 24 h, evaluating cell viability by the MTT reduction method.
Thus, the R/O combination constitutes a good model of oxidative stress and neurodegeneration with a mitochondrial origin, and has been broadly employed to evaluate potential hit compounds for the treatment of neurodegenerative diseases. Furthermore, treatment of laboratory animals with rotenone is known to induce many features associated to Parkinson’s disease, such as selective nigrostriatal dopaminergic degeneration and the appearance of α-synuclein cytoplasmic inclusions, which are associated with oxidative damage.

SH-SY5Y cells [3] = experiment: Neuroprotection against okadaic acid in SH-SY5Y cells (MTT); type: cell-based; conditions: for % neuroprotection against okadaic acid at 1 µM: Homo sapiens, SH-SY5Y, 18 h, 1 µM compound, okadaic acid 20 nM, read-out: % Neuroprotection ± SEM at 1 µM (okadaic acid)
Method: Neuroprotection studies against tau hyperphosphorylation exerted by okadaic acid (OA) were evaluated using the SH-SY5Y cell line as follows. […] After 18 h, cell viability was addressed by the MTT reduction method. MTT (5 mg/mL, 10 μL/well) was added and incubated for 2 h. Then, the medium was removed and the purple formazan crystals formed by viable cells were dissolved using 100 μL of DMSO. A FluoStar Optima spectrophotometer (BMG Labtech, Ortenberg, Baden-Württemberg, Germany) was used to measure the absorbance at 570 nm.
Okadaic acid is a potent inhibitor of protein phosphatase 2A (PP2A), thereby inducing tau hyperphosphorylation. For this reason, it can be employed as a model of neurodegenerative-disease-connected tau hyperphosphorylation, a well-known feature of Alzheimer’s disease, but present also in other NDDs, collectively known as tauopathies and characterized by the pathological aggregation of hyperphosphorylated tau in neurofibrillary tangles. […] Tau hyperphosphorylation is connected to oxidative stress, which activates p38 and deactivates calcineurin, a phosphatase involved in tau dephosphorylation by increasing RCAN1, its natural repressor [34, 35]. Indeed, hyperphosphorylation and oxidative stress have been proposed to generate a vicious circle that is critical to the advance of neurodegenerative tauopathies.

COC(=O)C1=C(C)N(CCc2ccccc2)C(=O)/C1=C\c1ccc(OCc2ccc(Cl)cc2)c(OC)c1 [Compound 3l, Methyl (Z)-4-[4-((4-Chlorobenzyl)oxy)-3-methoxybenzylidene]-2-methyl-5-oxo-1-phenethyl-4,5-dihydro-1H-pyrrole-3-carboxylate]
DPPH Scavenging at 0.1 mM, % [1]: 11.3 ± 2.6%
DPPH Scavenging at 1 mM, % [1]: 63.5 ± 2.2%
IC50 [1]: 712.2 ± 5.4 µM
EC (2-fold luciferase activity) (Nrf2): 14 ± 4.45 µM
% neuroprotection against rotenone/oligomycin A toxicity at 1 µM (SH-SY5Y cells [2]): 79.8 ± 8.28%
% neuroprotection against okadaic acid at 1 µM (SH-SY5Y cells [3]): 51.1 ± 18.4%

COC(=O)C1=C(C)N(CCc2ccccc2)C(=O)/C1=C\c1ccc2c(c1)OCO2 [Compound 3d, Methyl (Z)-4-(Benzo[d](1,3)dioxol-5-ylmethylene)-2-methyl-5-oxo-1-phenethyl-4,5-dihydro-1H-pyrrole-3-carboxylate]
DPPH Scavenging at 0.1 mM, % [1]: 40.5 ± 5.0%
DPPH Scavenging at 1 mM, % [1]: 41.6 ± 4.1%
EC (2-fold luciferase activity) (Nrf2): 17.9 ± 8.58 µM
% neuroprotection against rotenone/oligomycin A toxicity at 1 µM (SH-SY5Y cells [2]): 49.8 ± 9.46%
% neuroprotection against okadaic acid at 1 µM (SH-SY5Y cells [3]): 52.7 ± 17.2%

COC(=O)C1=C(C)N(CCc2ccccc2)C(=O)/C1=C\c1ccc(OC)c(O)c1 [Compound 3h, Methyl (Z)-4-(3-Hydroxy-4-methoxybenzylidene)-2-methyl-5-oxo-1-phenethyl-4,5-dihydro-1H-pyrrole-3-carboxylate]
radical scavenging activity in the DPPH assay [1]: high radical scavenging activity
DPPH Scavenging at 0.1 mM, % [1]: 89.0 ± 0.4%
IC50 [1]: 26.3 ± 2.1 µM
EC (2-fold luciferase activity) (Nrf2): 36.1 ± 418 µM
% neuroprotection against rotenone/oligomycin A toxicity at 1 µM (SH-SY5Y cells [2]): 46.2 ± 18.9%
level of neuroprotection compared with melatonin / in words (okadaic acid) (SH-SY5Y cells [3]; 1 µM): excellent neuroprotection
% neuroprotection against okadaic acid at 1 µM (SH-SY5Y cells [3]): 81.9 ± 28.5%

COC(=O)C1=C(C)N(Cc2ccccc2)C(=O)/C1=C\c1ccc(OC)cc1 [Compound 3b, Methyl (Z)-1-Benzyl-4-(4-methoxybenzylidene)-2-methyl-5-oxo-4,5-dihydro-1H-pyrrole-3-carboxylate]
DPPH Scavenging at 0.1 mM, % [1]: 6.5 ± 4.5%
DPPH Scavenging at 1 mM, % [1]: 27.2 ± 6.4%
EC (2-fold luciferase activity) (Nrf2): 18 ± 1.84 µM
% neuroprotection against rotenone/oligomycin A toxicity at 1 µM (SH-SY5Y cells [2]): 68 ± 31.5%
% neuroprotection against okadaic acid at 1 µM (SH-SY5Y cells [3]): 54.1 ± 14.3%

COC(=O)C1=C(C)N(CCc2ccc(OC)c(OC)c2)C(=O)/C1=C\c1ccc(OCc2ccccc2Cl)c(OC)c1 [Compound 3n, Methyl (Z)-4-[4-((2-Chlorobenzyl)oxy)-3-methoxybenzylidene]-1-(3,4-dimethoxyphenethyl)-2-methyl-5-oxo-4,5-dihydro-1H-pyrrole-3-carboxylate]
DPPH Scavenging at 0.1 mM, % [1]: 12.7 ± 3.5%
DPPH Scavenging at 1 mM, % [1]: 73.6 ± 0.7%
IC50 [1]: 552 ± 17.4 µM
EC (2-fold luciferase activity) (Nrf2): 14.3 ± 3.89 µM
% neuroprotection against rotenone/oligomycin A toxicity at 1 µM (SH-SY5Y cells [2]): 69.4 ± 23.9%
% neuroprotection against okadaic acid at 1 µM (SH-SY5Y cells [3]): 61.4 ± 15.8%

COC(=O)C1=C(C)N(CCc2ccccc2)C(=O)/C1=C\c1ccc(OCc2ccccc2Cl)c(OC)c1 [Compound 3k, Methyl (Z)-4-[4-((2-Chlorobenzyl)oxy)-3-methoxybenzylidene]-2-methyl-5-oxo-1-phenethyl-4,5-dihydro-1H-pyrrole-3-carboxylate]
DPPH Scavenging at 0.1 mM, % [1]: 7.3 ±1.4%
DPPH Scavenging at 1 mM, % [1]: 27.3 ± 1.0%
EC (2-fold luciferase activity) (Nrf2): < 10 µM
% neuroprotection against rotenone/oligomycin A toxicity at 1 µM (SH-SY5Y cells [2]): 60.3 ± 20.9%
% neuroprotection against okadaic acid at 1 µM (SH-SY5Y cells [3]): 57.1 ± 22.3%

COC(=O)C1=C(C)N(CCc2ccccc2)C(=O)/C1=C\c1cc(OC)c(OC)c(OC)c1 [Compound 3g, Methyl (Z)-2-Methyl-5-oxo-1-phenethyl-4-(3,4,5-trimethoxybenzylidene)-4,5-dihydro-1H-pyrrole-3-carboxylate]
DPPH Scavenging at 0.1 mM, % [1]: 8.1 ± 4.7%
DPPH Scavenging at 1 mM, % [1]: 46.5 ± 2.3%
% neuroprotection against rotenone/oligomycin A toxicity at 1 µM (SH-SY5Y cells [2]): 74.5 ± 7.19%
% neuroprotection against okadaic acid at 1 µM (SH-SY5Y cells [3]): 65.7 ± 29.1%

COC(=O)C1=C(C)N(CCc2ccccc2)C(=O)/C1=C\c1ccc(O)c(O)c1 [Compound 3i, Methyl (Z)-4-(3,4-Dihydroxybenzylidene)-2-methyl-5-oxo-1-phenethyl-4,5-dihydro-1H-pyrrole-3-carboxylate]
radical scavenging activity in the DPPH assay [1]: high radical scavenging activity
DPPH Scavenging at 0.1 mM, % [1]: 90.9 ± 0.5%
IC50 [1]: 7.5 ± 0.4 µM
EC (2-fold luciferase activity) (Nrf2): < 10 µM
% neuroprotection against rotenone/oligomycin A toxicity at 1 µM (SH-SY5Y cells [2]): > 90%
neuroprotective effect against okadaic acid by concentration (SH-SY5Y cells [3]; 0.01, 0.1, 1, 10 and 30 µM, OA 20 nM): concentration-dependent neuroprotective effect being statistically significant at 1 and 10 µM; also recorded: neuroprotection was lost at 30 µM
% neuroprotection against okadaic acid at 1 µM (SH-SY5Y cells [3]): 60.9 ± 23.3%

COC(=O)C1=C(C)N(CCc2ccccc2)C(=O)/C1=C\c1cc(OC)c(OC)cc1OC [Compound 3f, Methyl (Z)-2-Methyl-5-oxo-1-phenethyl-4-(2,4,5-trimethoxybenzylidene)-4,5-dihydro-1H-pyrrole-3-carboxylate]
DPPH Scavenging at 0.1 mM, % [1]: 9.7 ± 0.6%
DPPH Scavenging at 1 mM, % [1]: 9.7 ± 2.2%
EC (2-fold luciferase activity) (Nrf2): 31.1 ± 6.21 µM
% neuroprotection against rotenone/oligomycin A toxicity at 1 µM (SH-SY5Y cells [2]): 51 ± 16.9%
% neuroprotection against okadaic acid at 1 µM (SH-SY5Y cells [3]): 48.3 ± 11%

COC(=O)C1=C(C)N(Cc2ccccc2)C(=O)/C1=C\c1ccc(Cl)cc1 [Compound 3c, Methyl (Z)-1-Benzyl-4-(4-chlorobenzylidene)-2-methyl-5-oxo-4,5-dihydro-1H-pyrrole-3-carboxylate]
DPPH Scavenging at 0.1 mM, % [1]: 3.7 ± 3.8%
DPPH Scavenging at 1 mM, % [1]: 36.6 ± 3.4%
EC (2-fold luciferase activity) (Nrf2): 15 ± 0.8 µM
% neuroprotection against rotenone/oligomycin A toxicity at 1 µM (SH-SY5Y cells [2]): > 90%
% neuroprotection against okadaic acid at 1 µM (SH-SY5Y cells [3]): 52.8 ± 9.96%
